# Test results: PMC11768359, “2-Aminothiophene Derivatives—New Drug Candidates Against Leishmaniasis: Drug Design, Synthesis, Pharmacomodulation, and Antileishmanial Activity” (Pharmaceuticals, 2025)
# Where “and” joins values, the source holds several entries; their conditions need not be identical. Equal entries are not always repeated. Where two headings read alike, the source gives them in different places.
# How the values were obtained:
# [1] = test system: promastigotes of L. amazonensis; conditions: L. amazonensis promastigotes; previously published; read-out: IC50 Promastigotes; cited from earlier work
# [2] = test system: axenic amastigotes of L. amazonensis; conditions: L. amazonensis amastigotes, cited from earlier work
# L. amazonensis = conditions: Swiss mice, oral, 50 and 200 mg/kg, 7 weeks; versus meglumine antimoniate i.p. 100 mg/kg; cited from earlier work
# RAW 264.7 macrophages = assay: Cytotoxicity in macrophages (MTT); type: cell-based; conditions: 48 h
# Method: (§1) The in vitro tests utilized Leishmania amazonensis parasites (IFLA/BR/67/PH8). These leishmania cell lines were obtained from Oswaldo Cruz Foundation (FIOCRUZ)/Brazil. The promastigote forms were cultivated in Schneider’s insect medium at 26 °C in a biological oxygen demand (BOD) incubator. Schneider’s insect medium was supplemented with 20% fetal bovine serum (FBS) and 1% penicillin (100 U/mL) and streptomycin (µg/mL) (complete Schneider). Next, we differentiated them from promastigote forms by changing the conditions to Schneider’s insect medium supplemented with 5% FBS, pH 4.6, and a temperature of 32 °C to obtain axenic amastigote forms of L. amazonensis. Meanwhile, RAW 264.7 macrophages were cultured in […] cell culture flasks using DMEM medium supplemented with 10% FBS, 1% penicillin 100 U/mL, and 100 μg/mL streptomycin (complete DMEM) and incubated at 37 °C and 5% CO2.
# First, 100 μL DMEM medium complete with 1 × 10^6 macrophages (RAW 264.7) was added to each well of a 96-well plate. RAW 264.7 macrophages were obtain from ATCC: code TIB-71^TM. The plate was placed in an incubator (37 °C, 5% CO2) (Sanyo, model COM-15A, Sanyo Electric Co., Osaka, Japan) for 4 h to promote cell adhesion. After this period, two washes were conducted with previously heated DMEM medium (37 °C) to remove non-adhered cells. 2-amino-thiophene and 2-amino-selenophene derivatives were added to wells at serial concentrations of 400 to 25 µM and then incubated for 48 h. Next, 10 μL of MTT at a […] of 5 mg/mL were added to each well and incubated for 4 h. The plate was then shaken for 30 min and read at the test and reference wavelengths of 550 and 620 nm, respectively, in a plate reader. DMEM medium supplemented with 0.5% DMSO was used as a negative control and considered as 100% macrophage viability. The selectivity index for each treatment was calculated as the ratio between the concentration of cytotoxicity of RAW 264.7 macrophages (CC50) and the 50% inhibitory concentration (IC50) or effective concentration (EC50), as measured for the different evolutionary forms of L. amazonensis.
# [3] = test system: promastigotes of L. amazonensis; assay: Growth inhibition of promastigote forms of L. amazonensis (MTT); type: cell-based, Leishmania amazonensis; conditions: 72 h, 26 °C
# Method: as §1
# Parasite growth inhibition was evaluated using the methodology described by Rodrigues et al. (2015). Cultures of logarithmically growing promastigote and axenic amastigote forms (1 × 10^6 parasites/mL) were incubated in 96-well plates containing 100 µL of supplemented Schneider’s medium in triplicate. Serial concentrations of 2-amino-thiophene and 2-amino-selenophene derivatives (10.00–0.156 μM) and the reference drugs meglumine antimoniate (500–40,000 μg/mL), amphoterecinB (0.1–2 μM), and pentamidine (3.12–100 µM) were added. BNP was used as a negative control. The cultures were incubated in a biological oxygen demand oven (model Eletrolab EL202, São Paulo, Brazil) at 26 °C for promastigotes and 32 °C for axenic amastigotes for 72 h. Then, 10 μL of MTT (5 mg/mL) was added to each well to colorimetrically evaluate growth inhibition. The plate was subsequently incubated for a further 4 h, followed by adding 50 μL of 10% sodium dodecyl sulfate solution for […] before the optical density of the culture was read on a microplate spectrophotometer reader. The reading was taken at the test and reference wavelengths of 540 and 620 nm using a microplate spectrophotometer. The negative control consisted of 0.2% […] with BNP, considered to be 100% viable.
SMILES,IC50 [1],"IC50 ([2]; previously published, read-out: IC50 Amastigotes) [nM]",EC50 ([2]; read-out: EC50 against amastigotes) [nM],paw lesion size and parasite load in the reservoirs (L. amazonensis),CC50 (RAW 264.7 macrophages),CC50 (RAW 264.7 macrophages; listed as Anfotericina B) [nM],IC50 [3],IC50 ([3]; listed as Anfotericina B) [nM]
N#Cc1c(/N=C/c2c[nH]c3ccc(Br)cc23)sc2c1CCCC2 [SB-83],3300 nM and 3370 nM,18500,18500,more effective than meglumine antimoniate,–,–,–,–
"C[C@@H]1[C@H](O)[C@@H](C)/C=C/C=C/C=C/C=C/C=C/C=C/C=C/[C@H](O[C@@H]2O[C@H](C)[C@@H](O)[C@H](N)[C@@H]2O)C[C@@H]2O[C@](O)(C[C@@H](O)C[C@@H](O)[C@H](O)CC[C@@H](O)C[C@@H](O)CC(=O)O[C@H]1C)C[C@H](O)[C@H]2C(=O)O [Amphotericin B, reference compound]",–,–,–,–,180 nM and 300 nM,380,170 nM and 300 nM,360
